Experimental data reported in patent publication US9328099B2, “Cyanomethylpyrazole carboxamides as janus kinase inhibitors” (Merck Sharp & Dohme Corp., priority 2011, dated 2016).
Like-named read-outs stand apart in the source and are kept apart here.

Experiments:
JAK2 = JAK2 (Homo sapiens (Human), UniProt O60674); experiment: Jak Biochemical HTRF Assay, JAK2
From the text: (§1) Jak Biochemical HTRF Assay Protocol
(§2) Subsequent reagent additions employed an Agilent Bravo.

JAK1 = JAK1 (Homo sapiens (Human), UniProt P23458); experiment: Jak Biochemical HTRF Assay, JAK1; details: read-out: JAK1 IC50
Sequence of JAK1 (P23458 875-1153): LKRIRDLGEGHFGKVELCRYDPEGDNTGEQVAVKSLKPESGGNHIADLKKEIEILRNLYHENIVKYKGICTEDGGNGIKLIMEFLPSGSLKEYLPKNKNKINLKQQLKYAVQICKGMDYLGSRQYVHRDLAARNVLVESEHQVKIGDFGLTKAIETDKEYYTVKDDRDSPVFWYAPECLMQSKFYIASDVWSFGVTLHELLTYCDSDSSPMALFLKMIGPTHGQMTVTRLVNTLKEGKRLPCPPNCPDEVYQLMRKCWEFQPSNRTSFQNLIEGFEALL
From the text: as §1, §2

[1] = HTRF biochemical assay, GST-tagged catalytic domain, top concentration tested […]

Sequence of JAK2 (O60674 849-1124): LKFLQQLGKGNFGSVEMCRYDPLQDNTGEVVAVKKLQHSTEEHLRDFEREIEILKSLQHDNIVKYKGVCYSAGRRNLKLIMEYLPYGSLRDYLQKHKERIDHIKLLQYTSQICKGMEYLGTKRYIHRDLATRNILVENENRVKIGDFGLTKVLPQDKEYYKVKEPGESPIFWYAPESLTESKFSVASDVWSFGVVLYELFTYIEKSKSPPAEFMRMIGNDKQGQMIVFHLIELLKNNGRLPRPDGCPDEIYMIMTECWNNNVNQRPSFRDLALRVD

| IC50 (JAK2; [1]) [nM] | IC50 (JAK1; [1]) [nM] | SMILES | IC50 (JAK2) [nM] | IC50 (JAK1) [nM] |
| --- | --- | --- | --- | --- |
| 5 | 0.08 | N#CCC1(n2cc(C(N)=O)c(Nc3ccc(S(=O)(=O)C(F)F)cc3)n2)CCC(NC2CCOCC2)CC1 (stereo not drawn) [Example 40-26, Cis or trans 1-[1-(cyanomethyl)-4-(tetrahydro-2H-pyran-4-ylamino)cyclohexyl]-3-({4-[(difluoromethyl)sulfonyl]phenyl}amino)-1H-pyrazole-4-carboxamide] |  |  |
| 273 | 8 | N#CCC1(n2cc(C(N)=O)c(Nc3ccc(F)cc3)n2)CCC(N2CCC(O)CC2)CC1 (stereo not drawn) [Example 40-27, Cis or trans 1-[1-(cyanomethyl)-4-(4-hydroxypiperidin-1-yl)cyclohexyl]-3-[(4-fluorophenyl)amino]-1H-pyrazole-4-carboxamide] |  |  |
| 4 | 0.07 | N#CCC1(n2cc(C(N)=O)c(Nc3ccnc(F)c3)n2)CCC(Nc2cccc(Cl)c2)CC1 (stereo not drawn) [Example 40-29, Cis or trans 1-{4-[(3-chlorophenyl)amino]-1-(cyanomethyl)cyclohexyl}-3-[(2-fluoropyridin-4-yl)amino]-1H-pyrazole-4-carboxamide] |  |  |
| > 1500 | 326 | N#CCC1(n2cc(C(N)=O)c(Nc3ccnc(F)c3)n2)CCC(N2CCc3ccccc32)CC1 (stereo not drawn) [Example 40-30, Cis or trans 1-[1-(cyanomethyl)-4-(2,3-dihydro-1H-indol-1-yl)cyclohexyl]-3-[(2-fluoropyridin-4-yl)amino]-1H-pyrazole-4-carboxamide] |  |  |
| 2 | 0.1 | N#CCC1(n2cc(C(N)=O)c(Nc3ccc(S(=O)(=O)C(F)F)cc3)n2)CCC(N2CCC(F)(F)CC2)CC1 (stereo not drawn) [Example 40-31, Cis or trans 1-[1-(cyanomethyl)-4-(4,4-difluoropiperidin-1-yl)cyclohexyl]-3-({4-[(difluoromethyl)sulfonyl]phenyl}amino)-1H-pyrazole-4-carboxamide] |  |  |
| 0.8 | 0.03 | N#CCC1(n2cc(C(N)=O)c(Nc3ccnc(F)c3)n2)CCC(Nc2ccc(F)cc2F)CC1 (stereo not drawn) [Example 40-33, Cis or trans 1-{1-(cyanomethyl)-4-[(2,4-difluorophenyl)amino]cyclohexyl}-3-[(2-fluoropyridin-4-yl)amino]-1H-pyrazole-4-carboxamide] |  |  |
| 105 | 4 | CN(c1ccccc1)C1CCC(CC#N)(n2cc(C(N)=O)c(Nc3ccnc(F)c3)n2)CC1 (stereo not drawn) [Example 40-34, Cis or trans 1-{1-(cyanomethyl)-4-[methyl(phenyl)amino]cyclohexyl}-3-[(2-fluoropyridin-4-yl)amino]-1H-pyrazole-4-carboxamide] |  |  |
| > 1500 | 65 | N#CCC1(n2cc(C(N)=O)c(Nc3ccnc(F)c3)n2)CCC(Nc2ccc(F)c(F)c2)CC1 (stereo not drawn) [Example 40-36, Cis or trans 1-{1-(cyanomethyl)-4-[(3,4-difluorophenyl)amino]cyclohexyl}-3-[(2-fluoropyridin-4-yl)amino]-1H-pyrazole-4-carboxamide] |  |  |
| 506 | 16 | N#CCC1(n2cc(C(N)=O)c(Nc3ccnc(F)c3)n2)CCC(Nc2ccc(F)cc2F)CC1 (stereo not drawn) [Example 40-37, Cis or trans 1-{1-(cyanomethyl)-4-[(2,4-difluorophenyl)amino]cyclohexyl}-3-[(2-fluoropyridin-4-yl)amino]-1H-pyrazole-4-carboxamide] |  |  |
| 760 | 30 | N#CCC1(n2cc(C(N)=O)c(Nc3ccc(F)cc3)n2)CCC(Nc2cccnc2)CC1 (stereo not drawn) [Example 40-39, Cis or trans 1-[1-(cyanomethyl)-4-(pyridin-3-ylamino)cyclohexyl]-3-[(4-fluorophenyl)amino]-1H-pyrazole-4-carboxamide] |  |  |
| 9 | 0.2 | N#CCC1(n2cc(C(N)=O)c(Nc3ccnc(F)c3)n2)CCC(Nc2ccc(F)cc2)CC1 (stereo not drawn) [Example 40-40, Cis or trans 1-{1-(cyanomethyl)-4-[(4-fluorophenyl)amino]cyclohexyl}-3-[(2-fluoropyridin-4-yl)amino]-1H-pyrazole-4-carboxamide] |  |  |
| > 1500 | 584 | N#CCC1(n2cc(C(N)=O)c(Nc3ccc(F)cc3)n2)CCC(N2CCC(O)CC2)CC1 (stereo not drawn) [Example 40-41, Cis or trans 1-[1-(cyanomethyl)-4-(4-hydroxypiperidin-1-yl)cyclohexyl]-3-[(4-fluorophenyl)amino]-1H-pyrazole-4-carboxamide] |  |  |
| 775 | 64 | N#CCC1(n2cc(C(N)=O)c(Nc3ccc(S(=O)(=O)C(F)F)cc3)n2)CCC(N2CCC(F)(F)CC2)CC1 (stereo not drawn) [Example 40-42, Cis or trans 1-[1-(cyanomethyl)-4-(4,4-difluoropiperidin-1-yl)cyclohexyl]-3-({4-[(difluoromethyl)sulfonyl]phenyl}amino)-1H-pyrazole-4-carboxamide] |  |  |
| 14 | 0.3 | N#CCC1(n2cc(C(N)=O)c(Nc3ccc(S(=O)(=O)C(F)F)cc3)n2)CCC(N2CCC(O)CC2)CC1 (stereo not drawn) [Example 40-43, Cis or trans 1-[1-(cyanomethyl)-4-(4-hydroxypiperidin-1-yl)cyclohexyl]-3-({4-[(difluoromethyl)sulfonyl]phenyl}amino)-1H-pyrazole-4-carboxamide] |  |  |
|  |  | N#CCC1(n2cc(C(N)=O)c(Nc3ccc(S(=O)(=O)C(F)F)cc3)n2)CCC(Nc2cccc(O)c2)CC1 (stereo not drawn) [Example 40-44, Cis or trans 1-{1-(cyanomethyl)-4-[(3-hydroxyphenyl)amino]cyclohexyl}-3-({4-[(difluoromethyl)sulfonyl]phenyl}amino)-1H-pyrazole-4-carboxamide] | 0.8 | 0.1 |
| 770 | 38 | N#CCC1(n2cc(C(N)=O)c(Nc3ccnc(F)c3)n2)CCC(Nc2ccc(Cl)cc2)CC1 (stereo not drawn) [Example 40-45, Cis or trans 1-{4-[(4-chlorophenyl)amino]-1-(cyanomethyl)cyclohexyl}-3-[(2-fluoropyridin-4-yl)amino]-1H-pyrazole-4-carboxamide] |  |  |
| > 1500 | 215 | N#CCC1(n2cc(C(N)=O)c(Nc3ccnc(F)c3)n2)CCC(Nc2ccc(F)cc2)CC1 (stereo not drawn) [Example 40-47, Cis or trans 1-{1-(cyanomethyl)-4-[(4-fluorophenyl)amino]cyclohexyl}-3-[(2-fluoropyridin-4-yl)amino]-1H-pyrazole-4-carboxamide] |  |  |
| 137 | 5 | N#CCC1(n2cc(C(N)=O)c(Nc3ccc(F)cc3)n2)CCC(N2CCc3ccccc32)CC1 (stereo not drawn) [Example 40-49, Cis or trans 1-[1-(cyanomethyl)-4-(2,3-dihydro-1H-indol-1-yl)cyclohexyl]-3-[(4-fluorophenyl)amino]-1H-pyrazole-4-carboxamide] |  |  |
| > 1500 | 598 | N#CCC1(n2cc(C(N)=O)c(Nc3ccnc(F)c3)n2)CCC(NC2CCCCC2)CC1 (stereo not drawn) [Example 40-51, Cis or trans 1-[1-(cyanomethyl)-4-(cyclohexylamino)cyclohexyl]-3-[(2-fluoropyridin-4-yl)amino]-1H-pyrazole-4-carboxamide] |  |  |
| 20 | 0.6 | N#CCC1(n2cc(C(N)=O)c(Nc3ccc(F)cc3)n2)CCC(Nc2ccc(Cl)cc2)CC1 (stereo not drawn) [Example 40-52, Cis or trans 1-{4-[(4-chlorophenyl)amino]-1-(cyanomethyl)cyclohexyl}-3-[(4-fluorophenyl)amino]-1H-pyrazole-4-carboxamide] |  |  |
| > 1500 | 400 | N#CCC1(n2cc(C(N)=O)c(Nc3ccc(F)cc3)n2)CCC(Nc2ccc(Cl)cc2)CC1 (stereo not drawn) [Example 40-53, Cis or trans 1-{4-[(4-chlorophenyl)amino]-1-(cyanomethyl)cyclohexyl}-3-[(4-fluorophenyl)amino]-1H-pyrazole-4-carboxamide] |  |  |
| 24 | 0.9 | N#CCC1(n2cc(C(N)=O)c(Nc3ccnc(F)c3)n2)CCC(N2CCc3ccccc32)CC1 (stereo not drawn) [Example 40-54, Cis or trans 1-[1-(cyanomethyl)-4-(2,3-dihydro-1H-indol-1-yl)cyclohexyl]-3-[(2-fluoropyridin-4-yl)amino]-1H-pyrazole-4-carboxamide] |  |  |
| 409 | 13 | N#CCC1(n2cc(C(N)=O)c(Nc3ccnc(F)c3)n2)CCC(Nc2cccc(F)c2)CC1 (stereo not drawn) [Example 40-55, Cis or trans 1-{1-(cyanomethyl)-4-[(3-fluorophenyl)amino]cyclohexyl}-3-[(2-fluoropyridin-4-yl)amino]-1H-pyrazole-4-carboxamide] |  |  |
| 7 | 0.2 | N#CCC1(n2cc(C(N)=O)c(Nc3ccc(F)cc3)n2)CCC(Nc2ccccc2F)CC1 (stereo not drawn) [Example 40-58, Cis or trans 1-{1-(cyanomethyl)-4-[(2-fluorophenyl)amino]cyclohexyl}-3-[(4-fluorophenyl)amino]-1H-pyrazole-4-carboxamide] |  |  |
| 758 | 45 | N#CCC1(n2cc(C(N)=O)c(Nc3ccc(F)cc3)n2)CCC(Nc2ccccc2F)CC1 (stereo not drawn) [Example 40-60, Cis or trans 1-{1-(cyanomethyl)-4-[(2-fluorophenyl)amino]cyclohexyl}-3-[(4-fluorophenyl)amino]-1H-pyrazole-4-carboxamide] |  |  |
| 3 | 0.06 | N#CCC1(n2cc(C(N)=O)c(Nc3ccnc(F)c3)n2)CCC(Nc2ccc(Cl)cc2)CC1 (stereo not drawn) [Example 40-61, Cis or trans 1-{4-[(4-chlorophenyl)amino]-1-(cyanomethyl)cyclohexyl}-3-[(2-fluoropyridin-4-yl)amino]-1H-pyrazole-4-carboxamide] |  |  |

| SMILES | IC50 (JAK2; [1]) [nM] | IC50 (JAK1; [1]) [nM] | IC50 (JAK2) [nM] | IC50 (JAK1) [nM] |
| --- | --- | --- | --- | --- |
| N#CCC1(n2cc(C(N)=O)c(Nc3ccc(S(=O)(=O)C(F)F)cc3)n2)CCC(NC2CCCCC2)CC1 (stereo not drawn) [Example 40-57, Cis or trans 1-[1-(cyanomethyl)-4-(cyclohexylamino)cyclohexyl]-3-({4-[(difluoromethyl)sulfonyl]phenyl}amino)-1H-pyrazole-4-carboxamide] | > 1500 |  |  | 415 |
